From patent US20090233948A1, “Inhibitors of nucleoside phosphorylases and nucleosidases” (priority 2005, published 2009)
Where two headings read alike, the source gives them in different places.

Target: T1, human PNP (Homo sapiens, UniProt P00491)
T1 sequence (P00491 1-289): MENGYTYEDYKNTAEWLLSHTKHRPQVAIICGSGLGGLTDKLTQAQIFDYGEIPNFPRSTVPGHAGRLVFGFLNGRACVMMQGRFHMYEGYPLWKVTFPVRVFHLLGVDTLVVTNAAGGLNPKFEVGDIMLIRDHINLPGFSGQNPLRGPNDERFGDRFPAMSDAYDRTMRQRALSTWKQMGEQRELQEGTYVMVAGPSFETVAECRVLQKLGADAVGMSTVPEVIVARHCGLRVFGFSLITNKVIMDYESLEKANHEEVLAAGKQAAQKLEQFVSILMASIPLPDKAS
Assay: Inhibition of human PNP: phosphorolysis of inosine, xanthine oxidase coupled spectrophotometric assay (slow-onset tight-binding analysis)
Assay type: biochemical
Settings: huPNP 1.4 nM, 1 mM inosine, 50 mM KHPO4 pH 7.4, 25° C.
Method: Initial (Ki) and equilibrium (Ki*) dissociation constants of DAD-Et-Immucillin-H were determined for human PNP.
Inhibitor dissociation constants for the phosphorolysis of inosine were based on initial and equilibrium reaction rate measurements with varied inhibitor concentrations (Miles, R. W., Tyler, P. C., Furneaux, R. H., Bagdassarian, C. K. and Schramm, V. L. (1998) One-third-the-sites transition state inhibitors for purine nucleoside phosphorylase, Biochemistry 37, 8615-8621; Morrison, J. F. and Walsh, C. T. (1988) The behaviour and significance of slow-binding enzyme inhibitors, Adv. Enzymol. Relat. Areas Mol. Biol. 61, 201-301). […] Hypoxanthine formed by phosphorolysis of inosine was oxidized to uric acid and monitored spectrophotometrically at 293 nm (extinction coefficient for uric acid ε293=12.9 mM^−1cm^−1). Enzyme concentration was adjusted to give absorbance changes not exceeding 1.0 during the time required to characterize initial and final slow-onset inhibition equilibria. […] Ki was determined by fitting the initial rates at different inhibitor concentration to the equation for competitive inhibition: νi=(kcat×S)/(Km(1+I/Ki)+S), where μi is initial reaction rate, kcat is the catalytic turnover number, Km is the Michaelis constant, Ki is the dissociation constant of enzyme-inhibitor complex (EI), I is inhibitor concentration and S is substrate concentration. […]

Structure (SMILES): O=c1[nH]cnc2c(CCN3C[C@@H](CO)[C@H](O)C3)c[nH]c12 [Compound 1, (3S,4S)-1-[2-(9-Deaza-hypoxanthin-9-yl)ethyl]-3-hydroxy-4-hydroxymethylpyrrolidine]
- Ki (after slow onset equilibrium, read-out: Equilibrium dissociation constant (Ki*)): 0.46 ± 0.05 nM
- Ki (initial inhibitor binding step, read-out: Initial dissociation constant (Ki)): 1.6 ± 0.3 nM
